One data set has as its system calf thymus DNA (ctDNA). The experiment in a line: Terbium (Tb3+) luminescent biosensor detection of induced DNA damage. In kind it is biochemical. The following applies: for Tb luminescence enhancement (induced DNA damage): ctDNA incubated with compound 24 h, emission 545 nm, excitation 270 nm, compared with ctDNA-Tb mixture. An excerpt:
Luminescence studies were accomplished in order to examine the possible DNA interaction with the studied compounds. Many luminescent biosensors are reported in literature for studying the possibility of DNA interaction with small molecules. […] Figure 5 presents a schematic diagram for the fluorometric detection of the induced DNA damage using Tb biosensor. Tb^3+ ion in the Tb luminescent probe is a trivalent lanthanide cation having low intrinsic luminescence in aqueous solutions[45]^,[46]. When Tb biosensor is added to a solution of DNA, it interacts differently with double-stranded DNA (dsDNA) and single-stranded DNA (ssDNA). With dsDNA, Tb^3+ ions are electrostatically attracted to the negatively charged phosphate backbone of the DNA. […] Therefore, the assessed compound damages dsDNA, ssDNA sites would be formed opposite to the site of damage and Tb^3+ would directly coordinate to the unpaired nucleobases in this single-stranded site.
For investigating the DNA interaction potential of the fourteen studied compounds, calf thymus DNA (ctDNA) was incubated with each compound for 24 h and then Tb was added to each mixture. Doxorubicin (DOX), a commonly used reference for DNA damaging agent was used and treated the same condition as the studied compounds. Tb luminescent intensity was measured at λmax = 545 nm after excitation at λmax = 270 nm.
Several concentrations within the range of 0.1 pM–200.0 μM of each of the studied compounds were incubated with ctDNA for 24 h. After which, Tb solution was added to aliquots of such mixtures and the luminescence intensity was recorded. Figure 7 presents Tb luminescence intensity as a function of the compound concentration for various compound/ctDNA/Tb mixtures. At minimum concentration of the studied compounds, minimum Tb luminescence was recorded. This reflects that the DNA molecule is undamaged, intact and acquiring a double helical structure. In this conformation, Tb ions are electrostatically attracted to the negatively charged DNA-phosphate backbone showing no increase in its luminescence. For solutions with higher concentrations of compounds 5b, 5h, and 5j (Figure 7a,c,and d). Tb fluorescence increased proportionally with the concentration until a concentration of 100 and 60 μM for compounds 5b, 5h, and 5j, respectively, where no further increase in the fluorescence occurs. This reflects that more DNA damage is induced with increasing concentrations of the three compounds. At concentrations higher than 100 and 60 μM for compounds 5b, 5h, and 5j, respectively, Tb luminescence remains constant at high fluorescence levels. […] Table 1 illustrates the analytical parameters elucidated as shown in Figure 7 for the quantification of the induced DNA damage by the studied compounds. The linearity parameters were calculated from the calibration curve in Figure 7-inset in order to obtain the minimum concentration of the studied compounds that would induce DNA damage.
Fluorescence measurements: Fluorescence spectra were measured between 290 and 800 nm with excitation at 270 nm of 100 µL solutions in a 1 cm path length Suprasil quartz fluorescence cuvette.
The PerkinElmer LS 55 fluorescence spectrophotometer was used to measure the fluorescence. After 24 h of incubation in buffer solution (40 mM Tris, 10 mM NaCl, pH 7.5), aliquots of each DNA-Compound mixture were combined with TbCl3 to confirm DNA damage. The final concentrations were […] ctDNA, 3 mM TbCl3, and 50 µM of each compound in buffer solution (40 mM Tris, 10 mM NaCl, pH 7.5). Calf thymus DNA (ctDNA) was combined with various quantities of each substance, ranging from 0.1 pM to 200 µM, for the experiment. The ultimate concentrations of […] ctDNA and 3 mM were achieved by adding Tb3 + solution to the ctDNA/compound combinations in buffer solution (40 mM Tris, 10 mM NaCl, pH 7.5) after 24 h of incubation.[44]
All chemicals, solvents, media and kits were purchased from commercial suppliers. […]

Data set [1] relates to human colon cancer (HCT-116). Kind of data set: MTT cytotoxicity assay, HCT-116. Type of data set: cell-based. The note with it: 24 h treatment, read-out: IC50 against HCT-116. On the procedure:
(§1) All chemicals, solvents, media and kits were purchased from commercial suppliers.
(§2) In vitro anticancer screening […]
(§3) against three cancer cell lines namely: hepatocellular carcinoma (HepG2), human breast adenocarcinoma (MCF-7) and human colon cancer (HCT -116) utilizing MTT assay2. Compounds […]
(§4) 5b and 5h were screened for their effects on the normal breast cell line MCF‐10a. Cells at a density of 1 × 104 were seeded in a 96‐well plate at 37°C for 48 hr under 5% CO2. After incubation, the cells were treated with different concentrations of the prepared molecules and incubated for 24 hr.
(§5) MTT dye was added after 24 h of drug treatment and incubated for 4 h at 37°C. Also, 100 μl of dimethyl sulphoxide was added to each well to dissolve the purple formazan formed. The color intensity of the formazan product, which represents the growth condition of the cells, was quantified using an enzyme‐linked immunosorbent assay (ELISA) plate reader at 570 nm. The experiments were carried out with at least three replicates and they were repeated at least three […]
(§6) *: Statistically significant at p ≤ 0.05
(§7) Means with any Common letter (a-e) are not significant (OR Means with totally Different letters (a-e) are significant)
(Tetrazolium dyes change colour on reduction, which living cells bring about.)

Data set [2] relates to hepatocellular carcinoma (HepG2). The experiment in a line: MTT cytotoxicity assay, HepG2. Type of data set: cell-based. The note with it: Homo sapiens, 24 h treatment, read-out: IC50 against HepG2. The procedure: (Supplementary file). Compounds 5b and 5h were screened for their effects on the normal breast cell line MCF‐10a. Cells at a density of 1 × 104 were seeded in a 96‐well plate at 37 °C for 48 h under 5% CO2. After incubation, the cells were treated with different concentrations of the prepared molecules and incubated for 24 h. MTT dye was added after 24 h of drug treatment and incubated for 4 h at 37 °C. Also, 100 μl of dimethyl sulphoxide was added to each well to dissolve the purple formazan formed. The colour intensity of the formazan product, which represents the growth condition of the cells, was quantified using an enzyme‐linked immunosorbent assay (ELISA) plate reader at 570 nm. The experiments were carried out with at least three replicates and they were repeated at least three times.
as §1, §2, §3, §4, §5, §6, §7

SMILES strings stand for the structures.

Turning to `C=CCn1c(-c2ccc3ccccc3c2)cn(N=C2C(=O)c3cccc4cccc2c34)c1=S` [5n, 2-((3-Allyl-4-(naphthalen-2-yl)-2-thioxo-2,3-dihydro-1H-imidazol-1-yl)imino)-acenaphthylen-1(2H)-one], the melting point (in general, the temperature of the solid-liquid transition) was 230 to 232 °C. In the data set on calf thymus DNA (ctDNA), the “Tb luminescence enhancement (induced DNA damage)” value (“Tb luminescence enhancement” below) was “minimum enhancement”.
The compound `COc1cccc(-n2c(-c3ccccc3)cn(N=C3C(=O)c4cccc5cccc3c45)c2=S)c1` [5e, 2-((3-(3-Methoxyphenyl)-4-phenyl-2-thioxo-2,3-dihydro-1H-imidazol-1-yl)imino)-acenaphthylen-1(2H)-one] came in with a melting point of 212 to 214 °C. Besides, the “Tb luminescence enhancement” value in the data set with calf thymus DNA (ctDNA) is listed as “significant enhancement”. Besides, in the data set with calf thymus DNA (ctDNA) (ctDNA, 24 h incubation), the “Concentration at which Tb luminescence stops increasing (maximum DNA damage)” value was 80 µM, the “Concentration up to which no enhancement of Tb luminescence intensity occurs” value stood at 20 µM, the “LOD (limit of detection; minimum concentration inducing detectable damage in ctDNA)” value turned out to be 14.2 nM and the “LOQ (limit of quantitation)” value is 46.9 nM.
In turn, `O=C1C(=Nn2cc(-c3ccc4ccccc4c3)n(Cc3ccccc3)c2=S)c2cccc3cccc1c23` [5m, 2-((3-Benzyl-4-(naphthalen-2-yl)-2-thioxo-2,3-dihydro-1H-imidazol-1-yl)imino)-acenaphthylen-1(2H)-one] showed a melting point of 332 to 334 °C.
`O=C1C(=Nn2cc(-c3ccccc3)n(Cc3ccccc3)c2=S)c2cccc3cccc1c23` [5c, 2-((3-Benzyl-4-phenyl-2-thioxo-2,3-dihydro-1H-imidazol-1-yl)imino)-acenaphthylen-1(2H)-one]: the melting point is 212 to 214 °C.
Compound `Cn1c(-c2ccc(Cl)cc2)cn(N=C2C(=O)c3cccc4cccc2c34)c1=S` [5g, 2-((4–(4-Chlorophenyl)-3-methyl-2-thioxo-2,3-dihydro-1H-imidazol-1-yl)imino)-acenaphthylen-1(2H)-one] gave a melting point of 262 to 264 °C.
The compound `O=C1C(=Nn2cc(-c3ccc(Cl)cc3)n(Cc3ccccc3)c2=S)c2cccc3cccc1c23` [5i, 2-((3-Benzyl-4-(4-chlorophenyl)-2-thioxo-2,3-dihydro-1H-imidazol-1-yl)imino)-acenaphthylen-1(2H)-one] yielded a melting point of 260 to 262 °C.
`C=CCn1c(-c2ccc(Cl)cc2)cn(N=C2C(=O)c3cccc4cccc2c34)c1=S` [5k, 2-((3-Allyl-4-(4-chlorophenyl)-2-thioxo-2,3-dihydro-1H-imidazol-1-yl)imino)-acenaphthylen-1(2H)-one] displayed a melting point of 262 to 264 °C. For the same compound, the “Tb luminescence enhancement” value in the data set with calf thymus DNA (ctDNA) was “minimum enhancement”.
In the case of `O=C1C(=Nn2cc(-c3ccccc3)n(C3CCCCC3)c2=S)c2cccc3cccc1c23` [5d, 2-((3-Cyclohexyl-4-phenyl-2-thioxo-2,3-dihydro-1H-imidazol-1-yl)imino)-acenaphthylen-1(2H)-one], the melting point lay within 192 to 194 °C.
`COc1cccc(-n2c(-c3ccc(Cl)cc3)cn(N=C3C(=O)c4cccc5cccc3c45)c2=S)c1` [5j, 2-((4-(4-Chlorophenyl)-3-(3-methoxyphenyl)-2-thioxo-2,3-dihydro-1H-imidazol-1-yl)-imino)acenaphthylen-1(2H)-one]: the melting point lay within 282 to 284 °C. The “Tb luminescence enhancement” value in the data set on calf thymus DNA (ctDNA) was “significant enhancement”. In addition, in the data set with calf thymus DNA (ctDNA) (ctDNA, 24 h incubation), the “Concentration at which Tb luminescence stops increasing (maximum DNA damage)” value is 60 µM, the “LOD (limit of detection; minimum concentration inducing detectable damage in ctDNA)” value amounted to 12.7 nM and the “LOQ (limit of quantitation)” value was determined as 42.4 nM. In addition, in data set [1], the IC50 (in general, the concentration that inhibits the measured activity by half) is 10.8 µM. The IC50 in data set [2] is 7.9 µM.
Compound `C=CCn1c(-c2ccccc2)cn(N=C2C(=O)c3cccc4cccc2c34)c1=S` [5f, 2-((3-Allyl-4-phenyl-2-thioxo-2,3-dihydro-1H-imidazol-1-yl)imino)acenaphthylen-1(2H)-one] displayed a melting point of 212 to 214 °C. Besides, the “Tb luminescence enhancement” value with calf thymus DNA (ctDNA) is given as “minimum enhancement”.
As for `Cn1c(-c2ccccc2)cn(N=C2C(=O)c3cccc4cccc2c34)c1=S` [5a, 2-((3-Methyl-4-phenyl-2-thioxo-2,3-dihydro-1H-imidazol-1-yl)imino)acenaphthylen-1(2H)-one], the melting point lay in the range of 220 to 222 °C.
Take `Cn1c(-c2ccc3ccccc3c2)cn(N=C2C(=O)c3cccc4cccc2c34)c1=S` [5l, 2-((3-Methyl-4-(naphthalen-2-yl)-2-thioxo-2,3-dihydro-1H-imidazol-1-yl)imino)-acenaphthylen-1(2H)-one]: the melting point lay in the range of 240 to 242 °C.

(Values after PMC10946275, “New imidazole-2-thiones linked to acenaphythylenone as dual DNA intercalators and topoisomerase II inhibitors: structural optimization, docking, and apoptosis studies” (Journal of Enzyme Inhibition and Medicinal Chemistry, 2024).)
